# Assay results: patent publication US9725433B2, “Compounds as tyrosine kinase modulators” (Allergan, Inc., priority 2009, dated 2017)
# Biological target: PDGFβ (Homo sapiens (Human), UniProt P09619)
# Test: PDGF stimulated Ca2+ signal in vitro (FLIPR, NHDF-Ad); PDGFβ cellular
# Assay type: cell-based
# Details: PDGF 10 ng/mL, amide linker compounds
# Experimental: Automated FLIPR (Fluorometric Imaging Plate Reader) technology was used to screen for inhibitors of PDGF induced increases in intracellular calcium levels in fluorescent dye loaded […] cells. NHDF-Ad (Normal human dermal fibroblasts) (Lonza) were seeded in 384-well fibronectin coated black-walled plates overnight at 37° C./5% CO2. […] Cells were washed 4 times (ELx405-CW, Bio-Tek) to remove extracellular dye.
# Sequence of PDGFβ (P09619 33-1106): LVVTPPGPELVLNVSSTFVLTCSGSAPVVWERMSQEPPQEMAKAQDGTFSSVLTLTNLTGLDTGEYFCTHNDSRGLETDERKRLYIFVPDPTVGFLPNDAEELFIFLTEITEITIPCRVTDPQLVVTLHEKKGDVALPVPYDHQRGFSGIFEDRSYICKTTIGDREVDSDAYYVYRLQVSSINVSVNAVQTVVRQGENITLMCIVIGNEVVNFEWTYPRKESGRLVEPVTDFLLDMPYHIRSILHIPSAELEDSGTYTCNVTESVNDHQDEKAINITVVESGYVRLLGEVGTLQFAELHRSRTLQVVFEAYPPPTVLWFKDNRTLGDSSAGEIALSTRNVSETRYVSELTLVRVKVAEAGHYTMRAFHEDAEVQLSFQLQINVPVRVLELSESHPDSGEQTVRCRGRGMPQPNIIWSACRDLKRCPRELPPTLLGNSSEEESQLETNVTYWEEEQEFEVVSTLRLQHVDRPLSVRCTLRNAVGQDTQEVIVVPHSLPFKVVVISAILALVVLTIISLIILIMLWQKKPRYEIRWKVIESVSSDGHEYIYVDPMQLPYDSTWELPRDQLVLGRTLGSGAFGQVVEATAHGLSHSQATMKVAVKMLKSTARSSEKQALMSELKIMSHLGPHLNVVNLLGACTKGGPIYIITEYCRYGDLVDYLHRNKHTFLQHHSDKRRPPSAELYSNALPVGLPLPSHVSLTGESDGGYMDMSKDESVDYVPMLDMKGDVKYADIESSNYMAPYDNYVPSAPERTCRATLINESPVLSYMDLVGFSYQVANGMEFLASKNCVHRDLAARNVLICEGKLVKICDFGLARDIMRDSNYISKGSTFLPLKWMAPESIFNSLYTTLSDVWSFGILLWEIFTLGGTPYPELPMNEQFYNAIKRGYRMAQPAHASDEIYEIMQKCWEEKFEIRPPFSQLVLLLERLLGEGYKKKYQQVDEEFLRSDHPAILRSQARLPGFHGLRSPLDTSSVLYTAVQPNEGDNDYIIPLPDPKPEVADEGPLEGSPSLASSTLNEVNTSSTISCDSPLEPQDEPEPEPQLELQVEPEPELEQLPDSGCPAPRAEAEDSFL
substance,measurement,value
"2,3-dihydroxypropyl 5-(4-{3-[(3-methyl-2-furoyl)amino]phenoxy}pyridin-2-yl)-1H-pyrrole-3-carboxylate [Example 21]",IC50,39 nM
